The nature of the data set: Stability of tapentadol valine carbamate in simulated gastric and intestinal fluids, water and pH 10 buffer. Format: physicochemical.

Take `CC[C@H](c1cccc(OC(=O)N[C@H](C(=O)O)C(C)C)c1)[C@H](C)CN(C)C` (racemic) [Tapentadol valine carbamate, 2-[3-(3-Dimethylamino-1-ethyl-2-methyl-propyl)-phenoxycarbonylamino]-3-methyl-butyric acid]: the “Simulated gastric fluid (pH 1.1): % remaining after 2 h/37° C.” value (USP simulated gastric fluid pH 1.1, 2 h, 37° C., HPLC) was 100%. Where the note is “USP simulated intestinal fluid pH 6.8, 2 h, 37° C., HPLC”, the “Simulated intestinal fluid (pH 6.8): % remaining after 2 h/37° C.” value was 100%. In addition, the “Distilled water (pH 5.9): % remaining after 2 h/20° C.” value (distilled water pH 5.9, 2 h, 20° C.) is 100%. In addition, the “pH 10.0 buffer: % remaining after 2 h/20° C.” value (pH 10.0 buffer, 2 h, 20° C.) is given as 82%. Moreover, the “stability under the conditions existing in the GI tract” value (summary in words of Table 2) is given as “stable”.

The values are drawn from patent US20100227921A1, “AMINO ACID AND PEPTIDE CARBAMATE PRODRUGS OF […] USES THEREOF” (SHIRE LLC, priority 2009, published 2010).
